Results: article PMC7367925, “The EU-ToxRisk method documentation, data processing and chemical testing pipeline for the regulatory use of new approach methods” (Archives of Toxicology, 2020)

What was measured:
[1] = target: T1, Pregnane X receptor (Homo sapiens, UniProt O75469); experiment: PXR CALUX; format: cell-based; conditions: 24 h exposure, lowest effect level PC10, means from 3 assay runs
T1 construct: host or cells: U-2 OS
T1 sequence (O75469 1-434): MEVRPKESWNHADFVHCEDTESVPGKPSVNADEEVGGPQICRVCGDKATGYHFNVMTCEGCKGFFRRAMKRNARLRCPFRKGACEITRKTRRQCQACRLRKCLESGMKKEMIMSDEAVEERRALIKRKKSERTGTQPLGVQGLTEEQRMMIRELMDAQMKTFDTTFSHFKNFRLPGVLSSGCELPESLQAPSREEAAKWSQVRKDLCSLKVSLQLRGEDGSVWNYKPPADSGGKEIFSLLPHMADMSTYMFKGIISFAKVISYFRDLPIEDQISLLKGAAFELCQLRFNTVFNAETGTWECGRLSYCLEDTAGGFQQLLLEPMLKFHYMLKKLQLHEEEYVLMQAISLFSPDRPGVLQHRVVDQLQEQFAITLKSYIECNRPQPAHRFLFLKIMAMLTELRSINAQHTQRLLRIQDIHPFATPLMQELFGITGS
Method: (§1) After 24 h, exposure medium was prepared. […] All samples were tested in triplicates. […] Fig. SM_4. […] Fig. SM_4.
(§2) Supplementary Material SM_4
(§3) Overview of CALUX assays.
(§4) This is defined as the concentration of test compound […]
(§5) for an antagonist assay is a PC20.
(§6) PC = positive control. FI = fold induction. PC10: concentration where test compound causes an activation equal to 10% of the maximum effect (positive control). PC20: concentration where test compound causes […]
(§7) FI=1.5: concentration where test
(§8) (A) exemplary graph of concentration- […]
(§9) receptor antagonism assay with PC20 as lowest-effect-level. (C) exemplary graph for assay with 1.5 fold inductionas lowest effect level. 9

[2] = system: p53-dependent pathway activation / genotoxicity; format: cell-based, human; conditions: 24 h exposure, lowest effect level FI=1.5, means from 3 assay runs
Method: as §1, §2, §3, §4, §5, §6, §7, §8, §9

[3] = system: U-2 OS reporter cell lines battery; experiment: CALUX reporter gene assay battery as a whole; conditions: all CALUX assays, 13 concentrations, 24 h exposure
[4] = pooled test systems of the NAM panel (all test methods)
[5] = set-up: method as in Hardman JG 2001; conditions: known Cmax in man; ref Hardman JG 2001; cited from earlier work
[6] = system: U-2 OS cells; experiment: Cytotox CALUX; conditions: for PoD cytotoxicity: 24 h exposure, lowest effect level PC20, means from 3 assay runs
[7] = target: T2, Androgen receptor (Homo sapiens, UniProt P10275); format: cell-based; conditions: 24 h exposure, lowest effect level PC20, reference agonist at EC50, means from 3 assay runs
T2 construct: host or cells: U-2 OS
T2 sequence (P10275 1-920): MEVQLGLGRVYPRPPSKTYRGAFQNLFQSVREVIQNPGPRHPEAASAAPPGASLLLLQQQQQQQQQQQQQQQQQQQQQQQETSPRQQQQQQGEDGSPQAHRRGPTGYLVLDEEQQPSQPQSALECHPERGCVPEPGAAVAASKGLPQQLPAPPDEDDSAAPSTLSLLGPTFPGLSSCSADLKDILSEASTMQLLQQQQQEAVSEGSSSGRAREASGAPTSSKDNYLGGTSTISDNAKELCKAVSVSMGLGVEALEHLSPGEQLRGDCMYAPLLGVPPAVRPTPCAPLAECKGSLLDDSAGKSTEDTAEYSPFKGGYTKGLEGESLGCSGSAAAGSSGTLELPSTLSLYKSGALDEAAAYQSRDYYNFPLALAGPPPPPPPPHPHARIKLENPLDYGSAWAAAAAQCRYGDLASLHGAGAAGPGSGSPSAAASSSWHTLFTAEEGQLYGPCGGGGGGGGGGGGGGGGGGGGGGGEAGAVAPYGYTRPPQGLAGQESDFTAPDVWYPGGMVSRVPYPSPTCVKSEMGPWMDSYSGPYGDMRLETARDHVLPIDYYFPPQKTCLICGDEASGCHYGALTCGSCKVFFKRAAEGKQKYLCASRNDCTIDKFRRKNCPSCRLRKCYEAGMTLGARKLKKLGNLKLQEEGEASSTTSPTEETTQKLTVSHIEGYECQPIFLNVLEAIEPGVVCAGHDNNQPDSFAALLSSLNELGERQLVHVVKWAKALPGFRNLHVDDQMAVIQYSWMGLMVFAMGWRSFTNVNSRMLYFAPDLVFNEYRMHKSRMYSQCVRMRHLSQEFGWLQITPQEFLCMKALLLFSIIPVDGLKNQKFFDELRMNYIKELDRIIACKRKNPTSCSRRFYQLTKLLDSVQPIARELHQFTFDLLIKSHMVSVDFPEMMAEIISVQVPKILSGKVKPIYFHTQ
Method: as §1, §2, §3, §4, §5, §6, §7, §8, §9

[8] = target: T3, Thyroid hormone receptor beta (Homo sapiens, UniProt P10828); experiment: TRb-anti CALUX; format: cell-based; conditions: 24 h exposure, lowest effect level PC20, reference agonist at EC50, means from 3 assay runs
T3 construct: host or cells: U-2 OS
T3 sequence (P10828 1-461): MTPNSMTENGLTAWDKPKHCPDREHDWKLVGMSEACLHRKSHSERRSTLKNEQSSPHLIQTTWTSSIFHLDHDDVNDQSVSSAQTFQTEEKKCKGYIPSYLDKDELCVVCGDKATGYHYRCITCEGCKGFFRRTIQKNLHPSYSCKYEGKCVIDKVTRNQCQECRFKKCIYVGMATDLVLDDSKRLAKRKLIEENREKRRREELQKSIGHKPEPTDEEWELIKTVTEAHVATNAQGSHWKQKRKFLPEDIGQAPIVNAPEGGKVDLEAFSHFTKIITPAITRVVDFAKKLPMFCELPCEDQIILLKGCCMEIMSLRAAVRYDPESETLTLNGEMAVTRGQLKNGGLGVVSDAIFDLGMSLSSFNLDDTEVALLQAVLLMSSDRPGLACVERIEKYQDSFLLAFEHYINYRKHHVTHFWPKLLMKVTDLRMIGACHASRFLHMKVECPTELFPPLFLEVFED
Method: as §1
Cell line Endpoint effect Reference compound […]
Cytotox CALUX Cytoxicity PC20 tributyltinacetate
as §2, §3, §4, §5, §6, §7, §8, §9

[9] = human, plasma; cited from earlier work

CNC(=O)Oc1cccc2ccccc12 [Carbaryl]
PoD PXR - ago [1]: 4.0 -log(M)
PoD p53 [2]: 3.8 -log(M)

CCOC(=O)C(C)(C)Oc1ccc(Cl)cc1 [Clofibrate]
response profile over the CALUX battery (in words) [3]: no effect
viability [4]: 100%

COc1cc2c(c(OC)c1OC)-c1ccc(OC)c(=O)cc1[C@@H](NC(C)=O)CC2 [Colchicine]
Cmax [5]: 449 µM
cytotoxic concentration [6]: 50 nM
PoD cytotoxicity [6]: 7.3 -log(M)

Oc1c(Cl)cc(Cl)c(Cl)c1Cc1c(O)c(Cl)cc(Cl)c1Cl [Hexachlorophene]
PoD AR - anta [7]: 5.7 -log(M)
PoD TRβ - anta [8]: 6.0 -log(M)
PoD cytotoxicity [6]: 5.5 -log(M)
response profile over the CALUX battery (in words) [3]: only activated nuclear hormone receptor related assays

C[n+]1ccc(-c2ccccc2)cc1 [MPP^+, methyl-phenyl-pyridinium]
response profile over the CALUX battery (in words) [3]: no effect

CC(=O)Nc1ccc(O)cc1 [Paracetamol]
protein binding [9]: 15%
response profile over the CALUX battery (in words) [3]: no effect
